Assay results: patent publication US20150291598A1 (NOVARTIS AG, priority 2012, published 2015)
pEC50: −log10 of the molar value.

What follows are compounds tested on P. falciparum (NF54 or 3D7 strain) (assay: Assay for P. falciparum proliferation in infected human blood cells (SYBR Green)). Conditions: Plasmodium falciparum, Erythrocyte, 72 h, NF54 or 3D7 infected human erythrocytes, 72 hours; read-out: EC50 (nM), inhibitory efficacy in delaying P. falciparum proliferation in infected human blood cells.
Format: cell-based, Plasmodium falciparum
Method: Assay for P. falciparum Proliferation in Infected Human Blood Cells
Compounds of the invention can be assayed to measure their capacity to inhibit proliferation of P. falciparum parasitemia in infected red blood cells. This parasite proliferation assay measures the increase in parasite DNA content using a DNA intercalating dye, SYBR Green® (INVITROGEN®) which has a high affinity for double stranded DNA.
NF54 or 3D7 P. falciparum strain is grown in complete culturing media until parasitemia reaches 3% to 8% with O+ human erythrocytes. […] 20 μl of screening media is dispensed into 384 well assay plates. 50 nl of compounds of the invention (in DMSO), including antimalarial controls (mefloquine, pyrimethamine and artemisinin), are then transferred into the assay plates, as well as DMSO alone to serve as a negative control for inhibition. Then 30 μl of a suspension of a NF54 or 3D7 P. falciparum infected erythrocytes in screening media is dispensed into the assay plates such that the final hematocrit is 2.5% with a final parasitemia of 0.3%. The plates are placed in a 37° C. incubator for 72 hours in a low oxygen environment containing 93% N2, 4% CO2, and 3% O2 gas mixture. 10 μl of lysis buffer (saponin, triton-X, EDTA) containing a 10× solution of SYBR Green I® in RPMI media is dispensed into the plates. The plates are lidded and kept at room temperature overnight for the lysis of the infected red blood cells. The fluorescence intensity is measured (excitation […], emission 530 nm) using the Envision™ system (Perkin Elmer).

SMILES | EC50
CN(C)c1ccc(-c2cnc3cnc(CN(C)c4ccc(F)cc4)cn23)cc1 [Compound 36, 4-(6-{[(4-fluorophenyl)(methyl)amino]methyl}imidazo[1,2-a]pyrazin-3-yl)-N,N-dimethylaniline] | 329 nM
CN(C)c1ccc(-c2cnc3cnc(CN(C)c4ccc(Cl)cc4)cn23)cc1 [Compound 37, 4-(6-{[(4-chlorophenyl)(methyl)amino]methyl}imidazo[1,2-a]pyrazin-3-yl)-N,N-dimethylaniline] | 640 nM
COc1ccc(-c2cnc3cnc(C(=O)N(C)c4ccc(Cl)cc4Cl)cn23)cc1 [Compound 41, N-(2,4-dichlorophenyl)-3-(4-methoxyphenyl)-N-methylimidazo[1,2-a]pyrazine-6-carboxamide] | 97 nM
COc1ccc(-c2cnc3cnc(C(=O)N(C)c4ccc(C#N)cc4)cn23)cc1Cl [Compound 42, -(3-chloro-4-methoxyphenyl)-N-(4-cyanophenyl)-N-methylimidazo[1,2-a]pyrazine-6-carboxamide] | 333 nM
CN(C(=O)c1cn2c(-c3ccc(C(F)(F)F)cc3)cnc2cn1)c1ccc(Oc2ccccc2)cc1 [Compound 43, N-methyl-N-(4-phenoxyphenyl)-3-[4-(trifluoromethyl)phenyl]imidazo[1,2-a]pyrazine-6-carboxamide] | > 10000 nM
CN(Cc1cn2c(-c3ccc(Cl)cc3)cnc2cn1)c1ccc(Cl)cc1 [Compound 44, 4-chloro-N-{[3-(4-chlorophenyl)imidazo[1,2-a]pyrazin-6-yl]methyl}-N-methylaniline] | 206 nM
Cc1ccc(N(C)Cc2cn3c(-c4ccc5c(cnn5C)c4)cnc3cn2)nc1 [Compound 45, N,5-dimethyl-N-{[3-(1-methyl-1H-indazol-5-yl)imidazo[1,2-a]pyrazin-6-yl]methyl}pyridin-2-amine] | 178 nM
Cc1ccc(N(C)Cc2cn3c(-c4ccc(-c5ccn[nH]5)cc4)cnc3cn2)nc1 [Compound 47, N,5-dimethyl-N-({3-[4-(1H-pyrazol-5-yl)phenyl]imidazo[1,2-a]pyrazin-6-yl}methyl)pyridin-2-amine] | 1240 nM
CN(C(=O)c1cn2c(-c3ccc(C(F)(F)F)cc3)cnc2cn1)c1ccc(OC(F)F)cc1 [Compound 50, N-[4-(difluoromethoxy)phenyl]-N-methyl-3-[4-(trifluoromethyl)phenyl]imidazo[1,2-a]pyrazine-6-carboxamide] | 828 nM
CN(C(=O)c1cn2c(-c3ccc(C(F)(F)F)cc3)cnc2cn1)c1ccc(-c2cnn(C)c2)cc1 [Compound 51, N-methyl-N-[4-(1-methyl-1H-pyrazol-4-yl)phenyl]-3-[4-(trifluoromethyl)phenyl]imidazo[1,2-a]pyrazine-6-carboxamide] | > 9720 nM
CN(C(=O)c1cn2c(-c3ccc(C(F)(F)F)cc3)cnc2cn1)c1ccc(F)c(Br)c1 [Compound 52, N-(3-bromo-4-fluorophenyl)-N-methyl-3-[4-(trifluoromethyl)phenyl]imidazo[1,2-a]pyrazine-6-carboxamide] | 187 nM
CN(C(=O)c1cn2c(-c3ccc4c(cnn4C)c3)cnc2cn1)c1ccc(F)c(F)c1 [Compound 53, N-(3,4-difluorophenyl)-N-methyl-3-(1-methyl-1H-indazol-5-yl)imidazo[1,2-a]pyrazine-6-carboxamide] | 12 nM
CN(C(=O)c1cn2c(-c3ccc(C(F)(F)F)cc3)cnc2cn1)c1cccnc1F [Compound 54, N-(2-fluoropyridin-3-yl)-N-methyl-3-[4-(trifluoromethyl)phenyl]imidazo[1,2-a]pyrazine-6-carboxamide] | > 9280 nM
CN(C(=O)c1cn2c(-c3ccc(C(F)(F)F)cc3)cnc2cn1)c1ccc(Cl)c(Cl)c1 [Compound 55, N-(3,4-dichlorophenyl)-N-methyl-3-[4-(trifluoromethyl)phenyl]imidazo[1,2-a]pyrazine-6-carboxamide] | 160 nM
CN(C(=O)c1cn2c(-c3ccc(C(F)(F)F)cc3)cnc2cn1)c1ccc(Br)nc1 [Compound 58, N-(6-bromopyridin-3-yl)-N-methyl-3-[4-(trifluoromethyl)phenyl]imidazo[1,2-a]pyrazine-6-carboxamide] | 1140 nM
COc1cc(Cl)ccc1N(C)C(=O)c1cn2c(-c3ccc(C(F)(F)F)cc3)cnc2cn1 [Compound 59, N-(4-chloro-2-methoxyphenyl)-N-methyl-3-[4-(trifluoromethyl)phenyl]imidazo[1,2-a]pyrazine-6-carboxamide] | 35 nM
CN(C(=O)c1cn2c(-c3ccc(Cl)c(C(F)(F)F)c3)cnc2cn1)c1ccc(C#N)cc1 [Compound 60, 3-[4-chloro-3-(trifluoromethyl)phenyl]-N-(4-cyanophenyl)-N-methylimidazo[1,2-a]pyrazine-6-carboxamide] | 2630 nM
Cc1ccc(-c2cnc3cnc(C(=O)N(C)c4ccc(Cl)cc4Cl)cn23)cc1 [Compound 61, N-(2,4-dichlorophenyl)-N-methyl-3-(4-methylphenyl)imidazo[1,2-a]pyrazine-6-carboxamide] | 1370 nM
CN(Cc1cn2c(-c3ccc4c(cnn4C)c3)cnc2cn1)c1ccc(C#N)cc1 [Compound 62, 4-[methyl({[3-(1-methyl-1H-indazol-5-yl)imidazo[1,2-a]pyrazin-6-yl]methyl})amino]benzonitrile] | 82 nM
CN(C(=O)c1cn2c(-c3ccc(C(F)(F)F)cc3)cnc2cn1)c1ccc(F)cn1 [Compound 63, N-(5-fluoropyridin-2-yl)-N-methyl-3-[4-(trifluoromethyl)phenyl]imidazo[1,2-a]pyrazine-6-carboxamide] | 387 nM
COc1ccc(-c2cnc3cnc(C(=O)N(C)c4ccc(C#N)cc4)cn23)c(F)c1 [Compound 65, N-(4-cyanophenyl)-3-(2-fluoro-4-methoxyphenyl)-N-methylimidazo[1,2-a]pyrazine-6-carboxamide] | 354 nM

The next lines start with the values.

EC50 | SMILES
1200 nM | CN(C(=O)c1cn2c(-c3ccc(C(F)(F)F)cc3Cl)cnc2cn1)c1ccc(C#N)cc1 [Compound 31, 3-[2-chloro-4-(trifluoromethyl)phenyl]-N-(4-cyanophenyl)-N-methylimidazo[1,2-a]pyrazine-6-carboxamide]
135 nM | CN(C(=O)c1cn2c(-c3ccc(C(F)(F)F)cc3)cnc2cn1)c1ccc(F)c(Cl)c1 [Compound 32, N-(3-chloro-4-fluorophenyl)-N-methyl-3-[4-(trifluoromethyl)phenyl]imidazo[1,2-a]pyrazine-6-carboxamide]
4710 nM | CC(=O)c1cnc2cnc(C(=O)N(C)c3ccc(Cl)nc3)cn12 [Compound 33, 3-acetyl-N-(6-chloropyridin-3-yl)-N-methylimidazo[1,2-a]pyrazine-6-carboxamide]
462 nM | CN(C(=O)c1cn2c(-c3ccc(C(F)(F)F)cc3)cnc2cn1)c1cccc(Cl)c1 [Compound 35, N-(3-chlorophenyl)-N-methyl-3-[4-(trifluoromethyl)phenyl]imidazo[1,2-a]pyrazine-6-carboxamide]
1080 nM | CCc1ccc(N(C)C(=O)c2cn3c(-c4ccc(C(F)(F)F)cc4)cnc3cn2)nc1 [Compound 39, N-(5-ethylpyridin-2-yl)-N-methyl-3-[4-(trifluoromethyl)phenyl]imidazo[1,2-a]pyrazine-6-carboxamide]
3320 nM | CN(C(=O)c1cn2c(-c3ccc(C(F)(F)F)cc3)cnc2cn1)c1ccccc1OC(F)(F)F [Compound 40, N-methyl-N-[2-(trifluoromethoxy)phenyl]-3-[4-(trifluoromethyl)phenyl]imidazo[1,2-a]pyrazine-6-carboxamide]
> 10000 nM | CN(C(=O)c1cn2c(-c3cccc(-c4cn[nH]c4)c3)cnc2cn1)c1ccc(C#N)cc1 [Compound 46, N-(4-cyanophenyl)-N-methyl-3-[3-(1H-pyrazol-4-yl)phenyl]imidazo[1,2-a]pyrazine-6-carboxamide]
5100 nM | COc1cccc(-c2cnc3cnc(C(=O)N(C)c4ccc(C#N)cc4)cn23)c1 [Compound 48, N-(4-cyanophenyl)-3-(3-methoxyphenyl)-N-methylimidazo[1,2-a]pyrazine-6-carboxamide]
314 nM | CN(C(=O)c1cn2c(-c3ccc(C(F)(F)F)cc3)cnc2cn1)c1ccc(Cl)cc1Cl [Compound 49, N-(2,4-dichlorophenyl)-N-methyl-3-[4-(trifluoromethyl)phenyl]imidazo[1,2-a]pyrazine-6-carboxamide]
491 nM | Cc1cc(N(C)C(=O)c2cn3c(-c4ccc(C(F)(F)F)cc4)cnc3cn2)ccc1Cl [Compound 56, N-(4-chloro-3-methylphenyl)-N-methyl-3-[4-(trifluoromethyl)phenyl]imidazo[1,2-a]pyrazine-6-carboxamide]
70 nM | CN(C(=O)c1cn2c(-c3ccc(C(F)F)cc3)cnc2cn1)c1ccc(C#N)cc1 [Compound 57, N-(4-cyanophenyl)-3-[4-(difluoromethyl)phenyl]-N-methylimidazo[1,2-a]pyrazine-6-carboxamide]
116 nM | CN(Cc1cn2c(-c3ccc(OC(F)F)cc3)cnc2cn1)c1ccc(Cl)cc1 [Compound 64, 4-chloro-N-({3-[4-(difluoromethoxy)phenyl]imidazo[1,2-a]pyrazin-6-yl}methyl)-N-methylaniline]

Same assay, conditions: Plasmodium falciparum, Erythrocyte, infected human red blood cells; read-out: EC50, P. falciparum Proliferation Assay

pEC50 | SMILES
> 7.30 | Cc1ccc(N(C)Cc2cn3c(-c4ccc(-c5ccn[nH]5)cc4)cnc3cn2)nc1 [Compound 47, N,5-dimethyl-N-({3-[4-(1H-pyrazol-5-yl)phenyl]imidazo[1,2-a]pyrazin-6-yl}methyl)pyridin-2-amine]
